Consider 8 compounds from the Kinase Knowledgebase extract (Sharma et al. 2016).

Where only a bound is given, the exact number is not on record here.

What is called IC50 is the midpoint of a concentration-inhibition curve. Low values mean inhibition by little substance, high ones a need for much substance.

The target in experiment [1] is CDK2 (UniProt P24941). Kind of experiment: Enzyme Assay.
Experiment [2] has as its target MAPK14 (UniProt Q16539). Kind of experiment: Inhibition of MAPK14 Kinase Activity.

Sequence of MAPK14 (Q16539 whole entry, looked up): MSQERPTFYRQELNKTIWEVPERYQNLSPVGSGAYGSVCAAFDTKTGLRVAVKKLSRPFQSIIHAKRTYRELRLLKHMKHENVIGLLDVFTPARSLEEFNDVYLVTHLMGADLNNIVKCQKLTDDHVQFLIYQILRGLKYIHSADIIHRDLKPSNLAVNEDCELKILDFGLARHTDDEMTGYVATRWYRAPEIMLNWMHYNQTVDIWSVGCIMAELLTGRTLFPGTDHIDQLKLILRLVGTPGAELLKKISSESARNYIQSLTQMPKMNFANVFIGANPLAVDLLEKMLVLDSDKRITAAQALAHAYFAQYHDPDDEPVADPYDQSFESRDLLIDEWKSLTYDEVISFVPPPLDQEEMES

`O=C1Nc2ncc(Br)cc2C1=Cc1cc([N+](=O)[O-])c(O)c([N+](=O)[O-])c1`: the concentration for half-maximal inhibition (IC50) in experiment [1] is below 1 µM.
In the case of `O=C1Nc2ncc(Br)cc2C1=Cc1cc(Br)c(O)c(Br)c1`, the IC50 in experiment [1] and in experiment [2] was below 1 µM in each case.
As for `COc1ccccc1-c1cc(C=C2C(=O)Nc3ncc(Br)cc32)cc(Br)c1O`, the IC50 in experiment [2] is below 1 µM.
Take `C=Cc1cnc2c(c1)C(=Cc1cc(Br)c(O)c(Br)c1)C(=O)N2`: in experiment [1], the IC50 was below 1 µM.
In experiment [1], `NS(=O)(=O)c1ccc(-c2ccc(C=C3C(=O)Nc4ncc(-c5ccsc5)cc43)o2)cc1` came in with an IC50 below 1 µM.
In experiment [2], `NC(=O)c1cncc(-c2cnc3c(c2)C(=Cc2cc(Br)c(O)c(Br)c2)C(=O)N3)c1` yielded an IC50 of 1 to 10 µM.
Same read-out and setting: for `O=C1Nc2nc(Cl)ccc2C1=Cc1cc(Br)c(O)c(Br)c1` the value was below 1 µM.
On to `CCc1cnc2c(c1)C(=Cc1cc(Br)c(O)c(Br)c1)C(=O)N2`, for which the IC50 in experiment [1] and in experiment [2] was below 1 µM in each case.
